Where two headings read alike, the source gives them in different places.
How the values were obtained:
[1] = 2 molar sulphuric acid, 100°C; reported; cited from earlier work
[2] = Hydrolysis/decomposition of nitriles in acidified solutions; format: physicochemical
[3] = Solubilities of salts in acidified [2% v/v H2SO4] acetonitrile-water mixtures at 25°C (Table 3); conditions: 2% v/v H2SO4, water
[4] = Oxidation of stirred cuprous sulphate solutions in acidified acetonitrile-water mixtures under oxygen (Table 2); format: physicochemical; conditions: 1.5% wt Cu^+, O2 1 atm
Text: Effect of Nitrile and Acid Concentration.

[5] = acidified acetonitrile-water (10.8% ch3cn)
Description: Solubilities of salts in acidified [2% v/v H2 SO4 ] acetonitrile-water mixtures at 25°C.

[6] = Solubility of sulphur in refluxing acetonitrile-water-sulphuric acid; format: physicochemical; conditions: refluxing 50% acetonitrile, 45% water, 5% sulphuric acid
Description: c. Sulphur dissolved in refluxing 50% acetonitrile, 45% water, 5% sulphuric acid to the extent of about 0.05 gms/100 ml.

For `N#CCCO` [2-hydroxycyanoethane], the “rate of hydrolysis compared with acetonitrile” value [1] is listed as “comparable rate”.
In the case of `CC#N` [Acetonitrile, acetonitrile], the “hydrolysed to acetic acid and ammonium acetate within” value ([2]; 2 molar sulphuric acid, sealed tube, 100°C) is reported as ≤ 24 h and the “loss of acetonitrile on heating” value ([2]; acetonitrile, water, cuprous sulphate and 1N sulphuric acid, sealed tubes, 50°C, 2 months) is reported as “had not lost detectable amounts”.
In the case of `O=S(=O)([O-])[O-].[Cd+2]` [Cd SO4.8H2 O], the “Solubility (MX)” value ([3]; 15% v/v CH3CN) is reported as 492 mg/mL.
For `O=S(=O)([O-])[O-].[Cu+].[Cu+]` [Cu2 SO4, cuprous sulphate], the “Time for 30% of theoretical O2 uptake” value ([4]; 10% vol CH3CN, 5% vol H2SO4, 25°C) was 95 min, the “Time for 30% of theoretical O2 uptake” value ([4]; 30% vol CH3CN, 2.5% vol H2SO4, 25°C) was 330 min and the “Time for 30% of theoretical O2 uptake” value ([4]; 30% vol CH3CN, 5% vol H2SO4, 25°C) was 300 min. The “Time for 30% of theoretical O2 uptake” value ([4]; 30% vol CH3CN, 10% vol H2SO4, 25°C) was 375 min and the “Time for 30% of theoretical O2 uptake” value ([4]; 50% vol CH3CN, 5% vol H2SO4, 25°C) was 340 min.
For `O.O.O.O.O.O.O.O.O.O=S(=O)([O-])[O-].O=S(=O)([O-])[O-].O=S(=O)([O-])[O-].[Fe+3].[Fe+3]` [Fe2 (SO4).9H2 O], the “Solubility (MX)” value [5] was 325 mg/mL.
In the case of `O.O.O.O.O.O.O.O=S(=O)([O-])[O-].[Ni+2]` [NiSO4.7H2 O], the “Solubility (MX)” value ([3]; 16.6% v/v CH3CN) is reported as 231 mg/mL.
For `S1SSSSSSS1` [Sulphur, sulphur], the Sulphur dissolved [6] was “about 0.05 gms/100 ml”.
In the case of `N#CCO` [cyanohydrin of formaldehyde], the “decomposition in the nitrile suitability tests” value ([2]; water and suitable acids, cuprous salts) is reported as “decomposed rapidly”.

Reference: US3937657A, “Electrowinning of copper” (Anumin Pty. Limited, priority 1971, dated 1976)
